Results: patent publication US11608323B2 (SYNGENTA LIMITED, priority 2013, dated 2023)

Key:
Assay type in all cases: in vivo
ABUTH [1] = assay: Pre-emergence herbicidal activity, glasshouse pot test; details: rate 1000 g/Ha, evaluated after 13 days, scale 0-5
In short: (§1)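 Compounds are applied pre-emergence as an aqueous spray, formulated in 50:50 acetone/water containing 0.5% Tween 20, to pots sown one day earlier. Plants grow in a controlled glasshouse and are scored 13 days later for damage from 0 to 5.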

ALOMY [2] = assay: as above; details: rate 1000 g/Ha, evaluated after 13 days, scale 0-5
In short: as §1

AMARE [3] = assay: as above; details: rate 1000 g/Ha, evaluated after 13 days, scale 0-5
In short: as §1

ECHCG [4] = assay: as above; details: rate 1000 g/Ha, evaluated after 13 days, scale 0-5
In short: as §1

SETFA [5] = assay: as above; details: rate 1000 g/Ha, evaluated after 13 days, scale 0-5
In short: as §1

ZEAMX [6] = assay: as above; details: rate 1000 g/Ha, evaluated after 13 days, scale 0-5
In short: as §1

ABUTH [7] = assay: Post-emergence herbicidal activity, glasshouse pot test; details: Abutilon theophrasti; application post-emergence; rate 1000 g/Ha; evaluated after 13 days
In short: (§2)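 Damage was rated 0-5 (5 = total) 13 days after a post-emergence spray of acetone/water (50:50) plus 0.5% Tween 20 formulation. Plants were sprayed at 8 days' growth and kept at 24/16° C, 14 h light, 65% humidity, watered twice daily.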

ALOMY [8] = assay: as above; details: Alopecurus myosuroides; application post-emergence; rate 1000 g/Ha; evaluated after 13 days
In short: as §2

AMARE [9] = assay: as above; details: Amaranthus retroflexus; application post-emergence; rate 1000 g/Ha; evaluated after 13 days
In short: as §2

ECHCG [10] = assay: as above; details: Echinochloa crus-galli; application post-emergence; rate 1000 g/Ha; evaluated after 13 days
In short: as §2

SETFA [11] = assay: as above; details: Setaria faberi; application post-emergence; rate 1000 g/Ha; evaluated after 13 days
In short: as §2

ZEAMX [12] = assay: as above; details: Zea mays; application post-emergence; rate 1000 g/Ha; evaluated after 13 days
In short: as §2

SMILES: CON1C(=O)N(c2cc(C(F)(F)F)ccn2)C(O)[C@@H]1C (mixture of isomers) [Compound A3, (4R,5S)-4-hydroxy-1-methoxy-5-methyl-3-[4-(trifluoromethyl)-2-pyridyl]imidazolidin-2-one and (4S,5S)-4-hydroxy-1-methoxy-5-methyl-3-[4-(trifluoromethyl)-2-pyridyl]imidazolidin-2-one]
- ABUTH damage score, application pre-emergence (ABUTH [1]): 4
- ALOMY damage score, application pre-emergence (ALOMY [2]): 3
- AMARE damage score, application pre-emergence (AMARE [3]): 5
- ECHCG damage score, application pre-emergence (ECHCG [4]): 5
- SETFA damage score, application pre-emergence (SETFA [5]): 5
- ZEAMX damage score, application pre-emergence (ZEAMX [6]): 3
- Post-emergence herbicidal activity ABUTH (damage score 0-5) (ABUTH [7]): 5
- Post-emergence herbicidal activity ALOMY (damage score 0-5) (ALOMY [8]): 5
- Post-emergence herbicidal activity AMARE (damage score 0-5) (AMARE [9]): 5
- Post-emergence herbicidal activity ECHCG (damage score 0-5) (ECHCG [10]): 5
- Post-emergence herbicidal activity SETFA (damage score 0-5) (SETFA [11]): 5
- Post-emergence herbicidal activity ZEAMX (damage score 0-5) (ZEAMX [12]): 5

SMILES: CON1C(=O)N(c2cc(C(F)(F)F)ccn2)C(O)[C@H]1C (mixture of isomers) [Compound A4, (4R,5R)-4-hydroxy-1-methoxy-5-methyl-3-[4-(trifluoromethyl)-2-pyridyl]imidazolidin-2-one and (4S,5R)-4-hydroxy-1-methoxy-5-methyl-3-[4-(trifluoromethyl)-2-pyridyl]imidazolidin-2-one]
- ABUTH damage score, application pre-emergence (ABUTH [1]): 5
- ALOMY damage score, application pre-emergence (ALOMY [2]): 4
- AMARE damage score, application pre-emergence (AMARE [3]): 5
- ECHCG damage score, application pre-emergence (ECHCG [4]): 5
- SETFA damage score, application pre-emergence (SETFA [5]): 5
- ZEAMX damage score, application pre-emergence (ZEAMX [6]): 3
- Post-emergence herbicidal activity ABUTH (damage score 0-5) (ABUTH [7]): 5
- Post-emergence herbicidal activity ALOMY (damage score 0-5) (ALOMY [8]): 5
- Post-emergence herbicidal activity AMARE (damage score 0-5) (AMARE [9]): 5
- Post-emergence herbicidal activity ECHCG (damage score 0-5) (ECHCG [10]): 5
- Post-emergence herbicidal activity SETFA (damage score 0-5) (SETFA [11]): 5
- Post-emergence herbicidal activity ZEAMX (damage score 0-5) (ZEAMX [12]): 5

SMILES: C[C@H]1C(O)N(c2cc(C(F)(F)F)ccn2)C(=O)N1C (mixture of isomers) [Compound A37, (4R,5S)-4-hydroxy-1,5-dimethyl-3-[4-(trifluoromethyl)-2-pyridyl]imidazolidin-2-one and (4S,5S)-4-hydroxy-1,5-dimethyl-3-[4-(trifluoromethyl)-2-pyridyl]imidazolidin-2-one]
- ABUTH damage score, application pre-emergence (ABUTH [1]): 5
- ALOMY damage score, application pre-emergence (ALOMY [2]): 4
- AMARE damage score, application pre-emergence (AMARE [3]): 5
- ECHCG damage score, application pre-emergence (ECHCG [4]): 5
- SETFA damage score, application pre-emergence (SETFA [5]): 4
- ZEAMX damage score, application pre-emergence (ZEAMX [6]): 3
- Post-emergence herbicidal activity ABUTH (damage score 0-5) (ABUTH [7]): 5
- Post-emergence herbicidal activity ALOMY (damage score 0-5) (ALOMY [8]): 5
- Post-emergence herbicidal activity AMARE (damage score 0-5) (AMARE [9]): 5
- Post-emergence herbicidal activity ECHCG (damage score 0-5) (ECHCG [10]): 5
- Post-emergence herbicidal activity SETFA (damage score 0-5) (SETFA [11]): 5
- Post-emergence herbicidal activity ZEAMX (damage score 0-5) (ZEAMX [12]): 4

SMILES: CCOC1C(O)N(c2cc(C(F)(F)F)ccn2)C(=O)N1C (racemic) [Compound A6, 5-ethoxy-4-hydroxy-1-methyl-3-[4-(trifluoromethyl)-2-pyridyl]imidazolidin-2-one]
- ABUTH damage score, application pre-emergence (ABUTH [1]): 5
- ALOMY damage score, application pre-emergence (ALOMY [2]): 4
- AMARE damage score, application pre-emergence (AMARE [3]): 5
- ECHCG damage score, application pre-emergence (ECHCG [4]): 4
- SETFA damage score, application pre-emergence (SETFA [5]): 5
- ZEAMX damage score, application pre-emergence (ZEAMX [6]): 2
- Post-emergence herbicidal activity ABUTH (damage score 0-5) (ABUTH [7]): 5
- Post-emergence herbicidal activity ALOMY (damage score 0-5) (ALOMY [8]): 5
- Post-emergence herbicidal activity AMARE (damage score 0-5) (AMARE [9]): 5
- Post-emergence herbicidal activity ECHCG (damage score 0-5) (ECHCG [10]): 5
- Post-emergence herbicidal activity SETFA (damage score 0-5) (SETFA [11]): 5
- Post-emergence herbicidal activity ZEAMX (damage score 0-5) (ZEAMX [12]): 2

SMILES: COCC1C(O)N(c2cc(C(F)(F)F)ccn2)C(=O)N1C (racemic) [Compound A54]
- ABUTH damage score, application pre-emergence (ABUTH [1]): 5
- ALOMY damage score, application pre-emergence (ALOMY [2]): 3
- AMARE damage score, application pre-emergence (AMARE [3]): 5
- ECHCG damage score, application pre-emergence (ECHCG [4]): 2
- SETFA damage score, application pre-emergence (SETFA [5]): 2
- ZEAMX damage score, application pre-emergence (ZEAMX [6]): 0
- Post-emergence herbicidal activity ABUTH (damage score 0-5) (ABUTH [7]): 5
- Post-emergence herbicidal activity ALOMY (damage score 0-5) (ALOMY [8]): 5
- Post-emergence herbicidal activity AMARE (damage score 0-5) (AMARE [9]): 5
- Post-emergence herbicidal activity ECHCG (damage score 0-5) (ECHCG [10]): 5
- Post-emergence herbicidal activity SETFA (damage score 0-5) (SETFA [11]): 5
- Post-emergence herbicidal activity ZEAMX (damage score 0-5) (ZEAMX [12]): 4

SMILES: CC1C(O)N(c2ccc(Cl)cn2)C(=O)N1C (single isomer, unassigned) [Compound A26]
- ABUTH damage score, application pre-emergence (ABUTH [1]): 4
- ALOMY damage score, application pre-emergence (ALOMY [2]): 2
- AMARE damage score, application pre-emergence (AMARE [3]): 3
- ECHCG damage score, application pre-emergence (ECHCG [4]): 4
- SETFA damage score, application pre-emergence (SETFA [5]): 4
- ZEAMX damage score, application pre-emergence (ZEAMX [6]): 2
- Post-emergence herbicidal activity ABUTH (damage score 0-5) (ABUTH [7]): 4
- Post-emergence herbicidal activity ALOMY (damage score 0-5) (ALOMY [8]): 1
- Post-emergence herbicidal activity AMARE (damage score 0-5) (AMARE [9]): 3
- Post-emergence herbicidal activity ECHCG (damage score 0-5) (ECHCG [10]): 1
- Post-emergence herbicidal activity SETFA (damage score 0-5) (SETFA [11]): 1
- Post-emergence herbicidal activity ZEAMX (damage score 0-5) (ZEAMX [12]): 1

SMILES: Cc1ccnc(N2C(=O)N(C)C(C)C2O)c1 (single isomer, unassigned) [Compound A27]
- ABUTH damage score, application pre-emergence (ABUTH [1]): 4
- ALOMY damage score, application pre-emergence (ALOMY [2]): 3
- AMARE damage score, application pre-emergence (AMARE [3]): 5
- ECHCG damage score, application pre-emergence (ECHCG [4]): 4
- SETFA damage score, application pre-emergence (SETFA [5]): 4
- ZEAMX damage score, application pre-emergence (ZEAMX [6]): 3
- Post-emergence herbicidal activity ABUTH (damage score 0-5) (ABUTH [7]): 5
- Post-emergence herbicidal activity ALOMY (damage score 0-5) (ALOMY [8]): 3
- Post-emergence herbicidal activity AMARE (damage score 0-5) (AMARE [9]): 5
- Post-emergence herbicidal activity ECHCG (damage score 0-5) (ECHCG [10]): 3
- Post-emergence herbicidal activity SETFA (damage score 0-5) (SETFA [11]): 3
- Post-emergence herbicidal activity ZEAMX (damage score 0-5) (ZEAMX [12]): 3

SMILES: CCOC1C(O)N(c2cc(C(F)(F)F)c(I)cn2)C(=O)N1C (stereo not drawn) [Compound A16]
- ALOMY damage score, application pre-emergence (ALOMY [2]): 4
- AMARE damage score, application pre-emergence (AMARE [3]): 5
- ECHCG damage score, application pre-emergence (ECHCG [4]): 5
- SETFA damage score, application pre-emergence (SETFA [5]): 4
- Post-emergence herbicidal activity ABUTH (damage score 0-5) (ABUTH [7]): 5
- Post-emergence herbicidal activity ALOMY (damage score 0-5) (ALOMY [8]): 5
- Post-emergence herbicidal activity AMARE (damage score 0-5) (AMARE [9]): 5
- Post-emergence herbicidal activity ECHCG (damage score 0-5) (ECHCG [10]): 5
- Post-emergence herbicidal activity SETFA (damage score 0-5) (SETFA [11]): 5
- Post-emergence herbicidal activity ZEAMX (damage score 0-5) (ZEAMX [12]): 2

SMILES: CN1C(=O)N(c2cc(C(F)(F)F)c(I)cn2)C(O)C1O (stereo not drawn) [Compound A17]
- ALOMY damage score, application pre-emergence (ALOMY [2]): 3
- AMARE damage score, application pre-emergence (AMARE [3]): 5
- ECHCG damage score, application pre-emergence (ECHCG [4]): 4
- SETFA damage score, application pre-emergence (SETFA [5]): 3
- Post-emergence herbicidal activity ABUTH (damage score 0-5) (ABUTH [7]): 5
- Post-emergence herbicidal activity ALOMY (damage score 0-5) (ALOMY [8]): 5
- Post-emergence herbicidal activity AMARE (damage score 0-5) (AMARE [9]): 5
- Post-emergence herbicidal activity ECHCG (damage score 0-5) (ECHCG [10]): 5
- Post-emergence herbicidal activity SETFA (damage score 0-5) (SETFA [11]): 5
- Post-emergence herbicidal activity ZEAMX (damage score 0-5) (ZEAMX [12]): 4

SMILES: COC1C(O)N(c2cc(C(F)(F)F)c(I)cn2)C(=O)N1C (stereo not drawn) [Compound A18]
- ALOMY damage score, application pre-emergence (ALOMY [2]): 4
- AMARE damage score, application pre-emergence (AMARE [3]): 5
- ECHCG damage score, application pre-emergence (ECHCG [4]): 5
- SETFA damage score, application pre-emergence (SETFA [5]): 4
- Post-emergence herbicidal activity ABUTH (damage score 0-5) (ABUTH [7]): 5
- Post-emergence herbicidal activity ALOMY (damage score 0-5) (ALOMY [8]): 5
- Post-emergence herbicidal activity AMARE (damage score 0-5) (AMARE [9]): 5
- Post-emergence herbicidal activity ECHCG (damage score 0-5) (ECHCG [10]): 5
- Post-emergence herbicidal activity SETFA (damage score 0-5) (SETFA [11]): 5
- Post-emergence herbicidal activity ZEAMX (damage score 0-5) (ZEAMX [12]): 3
